Assays:
[1] = Transepithelial transport assay in parental MDCK-II monolayers; type: in vitro ADME, canine; settings: dog, nitroxynil 10 µM, no Ko143, read-out: Relative efflux transport ratio (BA/AB)
Experimental: (§1) Parental Madin–Darby canine kidney epithelial cells (MDCK–II) and their subclones transduced with murine (mAbcg2) and human (hABCG2) variants of ABCG2 were kindly provided by Dr. A. H. Schinkel (Netherlands Cancer Institute). Transduced MDCK–II cells with the ovine (oABCG2) and bovine (bABCG2) variants were previously generated by our group. Cells were cultured as described elsewhere.
(§2) Transepithelial transport assays were carried out as previously described with minor variations, using Hanks’ balanced salt solution (Sigma-Aldrich) supplemented with HEPES (25 mM), with or without Ko143 (1 μM), and containing or not nitroxynil 10 μM. […] At the end of the experiment, confluence of the monolayer was measured with the previously described Lucifer Yellow permeability test, with minor modifications. The appearance of nitroxynil in the opposite side of the well was measured by HPLC as later described. Active transport was expressed as relative efflux transport ratio (apically directed transport percentage divided by the basolaterally directed translocation percentage) at 4 h and referred to the initial concentration. […]
(§3) Waters 2695 separation module and Waters 2998 UV photodiode array detector set at 270 nm were used for samples analysis. […] Limit of detection (LOD) and quantification (LOQ) were calculated as previously described. […]

human ABCG2 = biological target: T1, human ABCG2 (Homo sapiens, UniProt Q9UNQ0); assay: Transepithelial transport assay in MDCK-II cells transduced with human ABCG2; type: in vitro ADME; settings: MDCK-II hABCG2, nitroxynil 10 µM, no Ko143, read-out: Relative efflux transport ratio (BA/AB)
T1 construct: expressed in transfected cells; host or cells: MDCK-II (canine kidney) subclone, provided by A. H. Schinkel (Netherlands Cancer Institute)
T1 sequence (Q9UNQ0 1-655): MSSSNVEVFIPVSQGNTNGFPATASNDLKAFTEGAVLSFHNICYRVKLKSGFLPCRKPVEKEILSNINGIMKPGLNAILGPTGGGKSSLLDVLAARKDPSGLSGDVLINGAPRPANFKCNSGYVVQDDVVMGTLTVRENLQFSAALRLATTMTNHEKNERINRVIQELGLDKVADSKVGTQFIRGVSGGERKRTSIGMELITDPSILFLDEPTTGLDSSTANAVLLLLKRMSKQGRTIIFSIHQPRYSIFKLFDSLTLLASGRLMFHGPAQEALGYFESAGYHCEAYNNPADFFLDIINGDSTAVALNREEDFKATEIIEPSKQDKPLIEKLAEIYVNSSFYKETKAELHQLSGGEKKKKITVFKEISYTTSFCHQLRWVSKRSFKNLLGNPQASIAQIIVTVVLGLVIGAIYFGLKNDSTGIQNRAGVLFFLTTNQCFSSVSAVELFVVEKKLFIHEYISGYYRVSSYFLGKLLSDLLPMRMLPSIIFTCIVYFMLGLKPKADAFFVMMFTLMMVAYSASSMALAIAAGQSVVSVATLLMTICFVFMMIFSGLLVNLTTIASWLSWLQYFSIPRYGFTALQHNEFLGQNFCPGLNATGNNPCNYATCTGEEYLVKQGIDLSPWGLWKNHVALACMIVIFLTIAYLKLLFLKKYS
Experimental: as §1, §2, §3

## N#Cc1cc(I)c(O)c([N+](=O)[O-])c1 [nitroxynil]
[1]
  efflux ratio at 4 h, 10 µM: 1.04 ± 0.03
Human ABCG2
  efflux ratio at 4 h, 10 µM: 8.76 ± 0.5
